From the NIST ThermoML archive (doi:10.1016/j.fluid.2014.12.040)
Numbers after ± are expanded uncertainties.

Test: xn = mol fraction of the nth substance listed
Conditions: for surface tension liquid-gas: Wilhelmy-plate method; for mass density: 100 kPa, Liquid, Vibrating tube method

CC(O)CO (stereo not given) [1,2-propanediol] + O
Conditions | mass density, 298.15 K [kg/m3] | mass density, 308.15 K [kg/m3] | mass density, 318.15 K [kg/m3] | mass density, 328.15 K [kg/m3] | surface tension liquid-gas, 298.15 K [mN/m] | surface tension liquid-gas, 308.15 K [mN/m] | surface tension liquid-gas, 318.15 K [mN/m] | surface tension liquid-gas, 328.15 K [mN/m]
x1 = 0.05 | 1011.79 ± 0.07 | 1007.53 ± 0.06 | 1002.61 ± 0.06 | 997.16 ± 0.06 | 56.18 ± 0.21 | 54.93 ± 0.21 | 53.89 ± 0.21 | 52.6 ± 0.21
x1 = 0.1 | 1022.73 ± 0.06 | 1017.48 ± 0.05 | 1011.69 ± 0.05 | 1005.39 ± 0.05 | 50.94 ± 0.2 | 49.9 ± 0.2 | 48.9 ± 0.2 | 47.83 ± 0.2
x1 = 0.15 | 1030.33 ± 0.05 | 1024.23 ± 0.05 | 1017.73 ± 0.05 | 1010.88 ± 0.05 | 47.41 ± 0.2 | 46.53 ± 0.2 | 45.71 ± 0.2 | 44.66 ± 0.2
x1 = 0.2 | 1035.27 ± 0.05 | 1028.47 ± 0.05 | 1021.65 ± 0.05 | 1014.32 ± 0.05 | 45.19 ± 0.2 | 44.36 ± 0.2 | 43.45 ± 0.2 | 42.52 ± 0.2
x1 = 0.25 | 1038.27 ± 0.05 | 1031.17 ± 0.05 | 1023.85 ± 0.05 | 1016.27 ± 0.04 | 43.64 ± 0.2 | 42.89 ± 0.2 | 42.15 ± 0.2 | 41.17 ± 0.2
x1 = 0.3 | 1039.85 ± 0.05 | 1032.55 ± 0.05 | 1025.01 ± 0.05 | 1017.25 ± 0.04 | 42.6 ± 0.2 | 41.92 ± 0.2 | 41.19 ± 0.2 | 40.38 ± 0.2
x1 = 0.35 | 1040.55 ± 0.05 | 1033.05 ± 0.05 | 1025.42 ± 0.05 | 1017.54 ± 0.04 | 41.43 ± 0.2 | 40.86 ± 0.2 | 40.19 ± 0.2 | 39.49 ± 0.2
x1 = 0.4 | 1040.6 ± 0.05 | 1033.02 ± 0.05 | 1025.34 ± 0.05 | 1017.47 ± 0.04 | 40.47 ± 0.2 | 39.78 ± 0.2 | 39.24 ± 0.2 | 38.57 ± 0.2
x1 = 0.45 | 1040.28 ± 0.05 | 1032.76 ± 0.05 | 1025.05 ± 0.05 | 1017.1 ± 0.04 | 39.44 ± 0.2 | 38.89 ± 0.2 | 38.36 ± 0.2 | 37.8 ± 0.2
x1 = 0.5 | 1039.83 ± 0.05 | 1032.3 ± 0.05 | 1024.54 ± 0.05 | 1016.59 ± 0.04 | 38.76 ± 0.2 | 38.27 ± 0.2 | 37.73 ± 0.2 | 37.19 ± 0.2
x1 = 0.55 | 1039.24 ± 0.05 | 1031.7 ± 0.05 | 1023.93 ± 0.05 | 1016 ± 0.04 | 37.95 ± 0.2 | 37.5 ± 0.2 | 37.07 ± 0.2 | 36.55 ± 0.2
x1 = 0.6 | 1038.53 ± 0.05 | 1031.03 ± 0.05 | 1023.29 ± 0.05 | 1015.39 ± 0.04 | 37.4 ± 0.2 | 36.94 ± 0.2 | 36.63 ± 0.2 | 36.15 ± 0.2
x1 = 0.65 | 1037.84 ± 0.05 | 1030.31 ± 0.05 | 1022.58 ± 0.05 | 1014.69 ± 0.04 | 36.98 ± 0.2 | 36.57 ± 0.2 | 36.15 ± 0.2 | 35.75 ± 0.2
x1 = 0.7 | 1037.09 ± 0.05 | 1029.56 ± 0.05 | 1021.87 ± 0.05 | 1014 ± 0.04 | 36.8 ± 0.2 | 36.35 ± 0.2 | 35.89 ± 0.2 | 35.53 ± 0.2
x1 = 0.75 | 1036.33 ± 0.05 | 1028.81 ± 0.05 | 1021.11 ± 0.05 | 1013.3 ± 0.04 | 36.62 ± 0.2 | 36.24 ± 0.2 | 35.79 ± 0.2 | 35.32 ± 0.2
x1 = 0.8 | 1035.57 ± 0.05 | 1028.06 ± 0.05 | 1020.37 ± 0.05 | 1012.54 ± 0.04 | 36.44 ± 0.2 | 36.1 ± 0.2 | 35.66 ± 0.2 | 35.17 ± 0.2
x1 = 0.85 | 1034.81 ± 0.05 | 1027.32 ± 0.05 | 1019.61 ± 0.05 | 1011.8 ± 0.04 | 36.26 ± 0.2 | 35.94 ± 0.2 | 35.52 ± 0.2 | 35.04 ± 0.2
x1 = 0.9 | 1034.08 ± 0.05 | 1026.59 ± 0.05 | 1018.9 ± 0.05 | 1011.06 ± 0.04 | 36.08 ± 0.2 | 35.76 ± 0.2 | 35.4 ± 0.2 | 34.88 ± 0.2
x1 = 0.95 | 1033.35 ± 0.05 | 1025.88 ± 0.05 | 1018.19 ± 0.04 | 1010.37 ± 0.04 | 35.9 ± 0.2 | 35.52 ± 0.2 | 35.14 ± 0.2 | 34.75 ± 0.2
x1 = 1 | 1032.69 ± 0.05 | 1025.21 ± 0.05 | 1017.51 ± 0.04 | 1009.78 ± 0.04 | 35.74 ± 0.2 | 35.35 ± 0.2 | 34.96 ± 0.2 | 34.6 ± 0.2
